Data: ChEMBL document CHEMBL1921676, “Pyrazolone-based anaplastic lymphoma kinase (ALK) inhibitors: control of selectivity by a benzyloxy group” (Bioorg Med Chem Lett, 2011)
Values belong to the molecule of their own block, whether it stands above or below them.

Key:
Insulin receptor = Insulin receptor (Homo sapiens, UniProt P06213); assay: Inhibition of GST-tagged intracellular domain of IR by homogeneous time-resolved fluorescence assay; assay type: single protein
[1] = target: ALK tyrosine kinase receptor (Homo sapiens, UniProt Q9UM73); assay: Inhibition of ALK
Chain of ALK tyrosine kinase receptor (Q9UM73 whole entry): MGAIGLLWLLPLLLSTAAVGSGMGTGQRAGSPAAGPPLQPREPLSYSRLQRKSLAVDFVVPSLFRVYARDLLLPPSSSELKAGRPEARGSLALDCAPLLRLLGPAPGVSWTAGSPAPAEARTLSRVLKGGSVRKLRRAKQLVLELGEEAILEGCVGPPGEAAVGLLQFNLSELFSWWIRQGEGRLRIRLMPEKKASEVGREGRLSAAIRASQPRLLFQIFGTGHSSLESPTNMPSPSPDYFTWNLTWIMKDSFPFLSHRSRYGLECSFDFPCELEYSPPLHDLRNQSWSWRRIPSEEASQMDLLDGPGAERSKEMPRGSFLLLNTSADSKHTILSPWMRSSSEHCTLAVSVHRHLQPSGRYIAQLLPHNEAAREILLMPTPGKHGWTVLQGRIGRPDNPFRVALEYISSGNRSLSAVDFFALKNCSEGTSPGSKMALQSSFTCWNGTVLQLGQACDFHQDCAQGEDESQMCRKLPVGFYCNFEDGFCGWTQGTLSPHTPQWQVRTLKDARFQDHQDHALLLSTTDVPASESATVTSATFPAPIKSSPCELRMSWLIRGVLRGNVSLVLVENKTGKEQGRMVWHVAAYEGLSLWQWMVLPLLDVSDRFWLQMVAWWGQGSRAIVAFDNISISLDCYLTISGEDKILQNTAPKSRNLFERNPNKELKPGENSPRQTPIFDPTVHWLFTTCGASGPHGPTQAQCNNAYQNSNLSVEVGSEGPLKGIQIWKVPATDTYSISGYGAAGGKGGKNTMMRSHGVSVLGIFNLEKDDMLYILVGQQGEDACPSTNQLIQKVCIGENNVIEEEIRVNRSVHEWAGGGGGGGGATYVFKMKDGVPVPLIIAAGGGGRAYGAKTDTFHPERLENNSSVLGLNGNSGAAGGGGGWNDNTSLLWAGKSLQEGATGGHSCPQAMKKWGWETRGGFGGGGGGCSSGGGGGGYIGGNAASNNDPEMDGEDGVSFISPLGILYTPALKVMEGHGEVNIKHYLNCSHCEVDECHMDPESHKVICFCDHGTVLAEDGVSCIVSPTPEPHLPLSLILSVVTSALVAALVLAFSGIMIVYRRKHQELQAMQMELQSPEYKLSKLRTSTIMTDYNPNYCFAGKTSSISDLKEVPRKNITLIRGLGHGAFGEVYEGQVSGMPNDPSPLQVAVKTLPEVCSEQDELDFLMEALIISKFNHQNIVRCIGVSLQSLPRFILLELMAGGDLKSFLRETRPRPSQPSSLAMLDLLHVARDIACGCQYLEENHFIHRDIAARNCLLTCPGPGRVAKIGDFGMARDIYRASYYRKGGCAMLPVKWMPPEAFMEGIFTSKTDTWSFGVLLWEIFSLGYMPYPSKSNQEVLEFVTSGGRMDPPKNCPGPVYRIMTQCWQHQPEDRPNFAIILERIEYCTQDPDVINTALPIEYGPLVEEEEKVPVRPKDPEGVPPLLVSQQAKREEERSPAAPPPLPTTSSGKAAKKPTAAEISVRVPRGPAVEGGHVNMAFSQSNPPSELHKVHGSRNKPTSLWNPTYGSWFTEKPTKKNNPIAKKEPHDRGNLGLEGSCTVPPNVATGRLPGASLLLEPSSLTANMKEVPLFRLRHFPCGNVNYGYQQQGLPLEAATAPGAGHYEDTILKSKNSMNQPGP

[2] = Half life in rat liver microsomes
[3] = Half life in dog liver microsomes
[4] = Half life in human liver microsomes
[5] = Half life in mouse liver microsomes
[6] = target: T1, Vascular endothelial growth factor receptor 2 (Homo sapiens, UniProt P35968); assay: Inhibition of human cytoplasmic domain of VEGFR-2 by time-resolved fluorescence assay
T1 sequence (P35968 whole entry, the tested form may be a part): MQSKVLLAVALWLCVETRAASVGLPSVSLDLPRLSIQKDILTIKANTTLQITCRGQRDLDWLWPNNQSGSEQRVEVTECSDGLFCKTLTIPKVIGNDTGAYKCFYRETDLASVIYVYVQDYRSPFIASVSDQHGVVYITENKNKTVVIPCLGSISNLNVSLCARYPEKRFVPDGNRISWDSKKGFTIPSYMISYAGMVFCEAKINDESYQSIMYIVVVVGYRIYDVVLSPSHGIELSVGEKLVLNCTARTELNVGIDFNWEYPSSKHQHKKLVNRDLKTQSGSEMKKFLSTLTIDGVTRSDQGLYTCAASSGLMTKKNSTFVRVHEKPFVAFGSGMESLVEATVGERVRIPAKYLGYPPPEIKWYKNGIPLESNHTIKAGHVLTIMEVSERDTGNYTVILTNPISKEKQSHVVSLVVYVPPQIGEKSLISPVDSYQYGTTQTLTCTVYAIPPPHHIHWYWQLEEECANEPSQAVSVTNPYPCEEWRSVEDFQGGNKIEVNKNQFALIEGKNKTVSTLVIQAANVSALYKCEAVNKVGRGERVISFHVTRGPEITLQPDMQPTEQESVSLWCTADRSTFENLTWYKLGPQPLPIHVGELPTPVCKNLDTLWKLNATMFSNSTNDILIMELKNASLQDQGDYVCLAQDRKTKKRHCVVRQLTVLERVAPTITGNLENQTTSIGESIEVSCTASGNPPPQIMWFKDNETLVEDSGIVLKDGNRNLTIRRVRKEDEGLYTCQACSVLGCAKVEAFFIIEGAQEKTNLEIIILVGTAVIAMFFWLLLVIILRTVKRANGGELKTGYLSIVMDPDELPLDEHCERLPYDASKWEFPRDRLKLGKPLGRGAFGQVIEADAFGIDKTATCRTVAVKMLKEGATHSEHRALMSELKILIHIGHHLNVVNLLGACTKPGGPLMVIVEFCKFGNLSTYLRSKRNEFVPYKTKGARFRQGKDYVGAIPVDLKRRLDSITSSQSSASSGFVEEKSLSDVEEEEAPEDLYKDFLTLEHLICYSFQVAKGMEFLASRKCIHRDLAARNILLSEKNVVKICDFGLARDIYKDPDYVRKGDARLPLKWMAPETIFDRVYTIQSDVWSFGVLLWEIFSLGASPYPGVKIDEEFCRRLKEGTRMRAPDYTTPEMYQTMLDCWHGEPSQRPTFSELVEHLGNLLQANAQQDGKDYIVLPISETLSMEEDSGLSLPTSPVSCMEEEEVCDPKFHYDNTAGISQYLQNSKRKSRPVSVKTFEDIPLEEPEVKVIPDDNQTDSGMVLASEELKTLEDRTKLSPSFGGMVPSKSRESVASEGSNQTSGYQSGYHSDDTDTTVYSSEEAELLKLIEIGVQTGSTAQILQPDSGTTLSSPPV

[7] = target: T1, Vascular endothelial growth factor receptor 2; assay: Inhibition of human cytoplasmic domain of VEGFR-2 at 1 uM by time-resolved fluorescence assay
[8] = AUC in rat at 5 mg/kg, po; assay type: ADME, organism-based; set-up: dose 5 mg/kg, route oral; conditions: plasma
[9] = Clearance in rat at 1 mg/kg, iv; assay type: ADME, organism-based; set-up: dose 1 mg/kg, route intravenous; conditions: in vivo
[10] = Volume of distribution in rat at 1 mg/kg, iv; assay type: ADME, organism-based; set-up: dose 1 mg/kg, route intravenous; conditions: in vivo
[11] = AUC in rat at 1 mg/kg, iv; assay type: ADME, organism-based; set-up: dose 1 mg/kg, route intravenous; conditions: plasma
[12] = Half life in rat at 1 mg/kg, iv; assay type: ADME, organism-based; set-up: dose 1 mg/kg, route intravenous; conditions: in vivo

- IC50 (Insulin receptor): > 10000 nM
Compound: Cc1nnsc1C1=NNC(=O)/C1=C\c1cn(C)c2cccc(OCc3cccc(F)c3)c12

- IC50 [1]: 229 nM
Compound: Cn1cc(/C=C2\C(=O)NN=C2c2nccs2)c2c(OCc3ccc(F)cc3F)cccc21

- half-life ([2]; microsomes): 6 min
- IC50 (Insulin receptor): 428 nM
- half-life ([3]; microsomes): 10 min
- half-life ([4]; microsomes): 7 min
- half-life ([5]; microsomes): 6 min
Compound: Cn1cc(/C=C2\C(=O)NN=C2c2nccs2)c2c(OCc3c(F)cccc3F)cccc21

- IC50 (Insulin receptor): > 10000 nM
Compound: Cc1nnsc1C1=NNC(=O)/C1=C\c1cn(C)c2cccc(OCc3ccc(F)cc3F)c12

- IC50 (Insulin receptor): 861 nM
Compound: Cc1nnsc1C1=NNC(=O)/C1=C\c1cn(C)c2cccc(OCc3c(F)ccc(Cl)c3F)c12

- IC50 (Insulin receptor): 720 nM
Compound: Cc1nnsc1C1=NNC(=O)/C1=C\c1cn(C)c2cccc(OCc3c(F)cccc3Cl)c12

- half-life ([2]; liver microsomes): > 40 min
- IC50 (Insulin receptor): > 10000 nM
- half-life ([3]; liver microsomes): 29 min
- half-life ([4]; liver microsomes): 32 min
- IC50 [6]: > 300 nM
- half-life ([5]; liver microsomes): > 40 min
Compound: Cc1nnsc1C1=NNC(=O)/C1=C\c1cn(C)c2cccc(OCc3ccccc3)c12

- IC50 (Insulin receptor): > 10000 nM
Compound: Cc1nnsc1C1=NNC(=O)/C1=C\c1cn(C)c2cccc(OCc3ccc(F)cc3)c12

- half-life ([2]; liver microsomes): 8 min
- IC50 (Insulin receptor): > 1000 nM
- half-life ([3]; liver microsomes): 8 min
- inhibition [7]: 50%
- half-life ([4]; liver microsomes): 10 min
- half-life ([5]; liver microsomes): 6 min
Compound: Cn1cc(/C=C2\C(=O)NN=C2c2nccs2)c2c(OCc3cccc(F)c3)cccc21

- IC50 [1]: 104 nM
Compound: Cn1cc(/C=C2\C(=O)NN=C2c2cccs2)c2c(OCc3ccccc3)cccc21

- IC50 (Insulin receptor): 1410 nM
Compound: Cn1cc(/C=C2\C(=O)NN=C2c2nccs2)c2c(OCc3c(F)cccc3Cl)cccc21

- IC50 [1]: 291 nM
Compound: Cc1nnsc1C1=NNC(=O)/C1=C\c1cn(C)c2cccc(OCCN(C)C)c12

- IC50 [1]: 63 nM
Compound: Cn1cc(/C=C2\C(=O)NN=C2c2nccs2)c2c(OCc3ccc(F)cc3)cccc21

- IC50 (Insulin receptor): 661 nM
Compound: Cc1nnsc1C1=NNC(=O)/C1=C\c1cn(C)c2cccc(OCc3c(F)ccc(F)c3Cl)c12

- IC50 [1]: 54 nM
Compound: Cn1cc(/C=C2\C(=O)NN=C2c2cccnc2)c2c(OCc3ccccc3)cccc21

- IC50 (Insulin receptor): > 10000 nM
Compound: Cc1nnsc1C1=NNC(=O)/C1=C\c1cn(C)c2cccc(OCc3ccccc3F)c12

- IC50 (Insulin receptor): > 10000 nM
Compound: Cn1cc(/C=C2\C(=O)NN=C2c2nccs2)c2c(OCc3ccccc3F)cccc21

- IC50 (Insulin receptor): > 1000 nM
Compound: Cc1nnsc1C1=NNC(=O)/C1=C\c1cn(C)c2cccc(OCc3c(F)cccc3F)c12

- IC50 (Insulin receptor): > 10000 nM
Compound: CC(Oc1cccc2c1c(/C=C1\C(=O)NN=C1c1nccs1)cn2C)c1ccccc1 (stereo not drawn)

- half-life ([2]; microsomes): 30 min
- IC50 (Insulin receptor): 9120 nM
- AUC [8]: 13 ng·h/mL
- clearance [9]: 19.6 mL/min
- Vd [10]: 1.2 L/kg
- AUC [11]: 972 ng·h/mL
- half-life ([3]; microsomes): 22 min
- inhibition [7]: 50%
- half-life ([4]; microsomes): 30 min
- half-life [12]: 41.4 min
- half-life ([5]; microsomes): 25 min
Compound: Cn1cc(/C=C2\C(=O)NN=C2c2nccs2)c2c(OCc3ccccc3)cccc21

- IC50 [1]: 158 nM
Compound: Cc1nnsc1C1=NNC(=O)/C1=C\c1cn(C)c2cccc(OCc3ccccn3)c12

- IC50 [1]: 4600 nM
Compound: CN(C)c1nnc(C2=NNC(=O)/C2=C\c2cn(C)c3cccc(OCc4ccccc4)c23)s1

- IC50 [1]: 3000 nM
Compound: Cc1nc(COc2cccc3c2c(/C=C2\C(=O)NN=C2c2snnc2C)cn3C)cs1

- IC50 [1]: 10000 nM
Compound: Cn1cc(/C=C2\C(=O)NN=C2c2nc(C(F)(F)F)cs2)c2c(OCc3ccccc3)cccc21

- half-life ([2]; liver microsomes): 10 min
- IC50 (Insulin receptor): 6500 nM
- half-life ([3]; liver microsomes): 12 min
- half-life ([4]; liver microsomes): 14 min
- half-life ([5]; liver microsomes): 8 min
Compound: Cn1cc(/C=C2\C(=O)NN=C2c2nccs2)c2c(OCc3cccc(F)c3F)cccc21

- half-life ([2]; microsomes): 5 min
- IC50 (Insulin receptor): 998 nM
- half-life ([3]; microsomes): 5 min
- half-life ([4]; microsomes): 6 min
- half-life ([5]; microsomes): 5 min
Compound: CCOc1cccc2c1c(/C=C1\C(=O)NN=C1c1snnc1C)cn2C
